Assay results from patent US5047433A, “N-alkyl derivatives of 2-amino-6,7-dimethoxy tetraline and pharmaceutical compositions having antihypertensive activity containing same” (Sigma-Tau Industrie Farmaceutiche Riunite S.p.A., priority 1986, dated 1991).
Structures can show the parent of a compound that is named as a salt. Where two headings read alike, the source gives them in different places.

Experiments:
[1] = Tolerability in mice (oral and intravenous); design: species or system mouse (Male Albino Swiss); conditions: mouse, in vivo, monitored 7 days
Protocol: Male Albino Swiss mice weighing 22-24 g were used in this test.
One group of animals (4/does) which had been kept fasting for 18 hours was orally administered the compounds dissolved in twice distilled water. The same compounds dissolved in saline at pH-7 were intravenously injected in a further group of animals which had free access to food and drinking water. All of the animals were monitored for 7 days.

[2] = system: Hypertensive SHR rats; assay: Non-invasive measure of arterial pressure in genetically hypertensive (SHR) rats; format: in vivo, rat (male SHR); conditions: oral, 40 mg/kg
Protocol: Male SHR rats (Charles River) of 4-6 months were used in this test. The compounds listed were dissolved in either 0.9% saline or twice distilled water and administered via the oral route (10-40 mg/5 ml/kg).
The animals, housed in individual cages at 23° C. and 60% humidity, had free access to food and drinking water. A BP recorder (Letica) equipped with a two-way polygraph was used. The systolic and diastolic pressure and the heart rate were recorded. The animals, a few days before the test began, were accustomed to be constrained on a heating plate (at 38° C.±1° C. for 20 minutes).
During the pre-tests, assessments were made at time 0 (8^30 -9^30 a.m.) and after 2 and 4 hours.
Every assessment was the average of 3-5 measures and the maximum residence time of the animal in the thermostatized chamber (for the whole test duration) was 40 minutes; the time interval between administrations of different doses of the same compound was 3 days.
(§1) Student's "t" test was used for assessing the differences with respect to the control group and its own 0 time.

[3] = LD50 in mice (intravenous); conditions: mouse, in vivo, Weil's method
Protocol: LD50 was assessed according to the Carrol S. Weil's method (Biometrics, pages 249-263 (1952)) on male Albino Swiss mice weighing 22-24 g. The compounds dissolved in […] solution were administered via the intravenous route.

[4] = system: Normotensive cats; assay: Measure of arterial pressure in normotensive cats; format: in vivo, cat; conditions: anesthetized cats, crural vein
Protocol: Normotensive cats of either sex weighing 2.5-3.5 kgs were used in this test.
The animals fasted for 18 hours were anesthetized with Na Nembutal (30 mg/kg) and ethyl urethane (300 mg/kg i.p.). The crural vein and artery of the animals were cannulated, the former for administering the compounds, the latter for monitoring the arterial pressure. The arterial pressure was measured via a mercury gauge connected to a rotating kymograph.
The compounds were dissolved in sterile 0.9% saline and administered at physiological pH in a 0.5 ml/kg volume.

[5] = system: Hypertensive DOCA rats; assay: Non-invasive measure of arterial pressure in rats made hypertensive (DOCA); format: in vivo, rat (male Wistar); conditions: oral, 40 mg/kg, 2-4 hours
Protocol: Male Wistar rats (Charles River) of 4 months were used in this test.
The compounds listed were solubilized in twice distilled water and administered via the oral route (40 mg/5 ml/kg).
The animals, housed in individual cages at 23° C. and 60% humidity, had free access to food and were made to drink 1% saline solution. The animals were administered 20 mg/kg s.c. of deoxycorticosterone acetate (DOCA) for 14 days on end.
A BP recorder (Letica) equipped with a two-way polygraph was used. The systolic and diastolic pressure, and the heart rate were recorded. The animals, a few days before the test began, were accustomed to be constrained on a heating plate (at 38° C.±1° C. for 20 minutes).
During the pre-test, assessments were made at time 0 (8^30 -9^30 a.m.) and after 2 and 4 hours.
Every assessment was the average of 3-5 measures and the maximum residence time of animal in the thermostatized chamber (for the whole test duration) was 40 minutes; the time interval between administrations of different doses of the same compound was 3 days.
as §1

[6] = system: Normotensive cats; assay: Measure of arterial pressure in normotensive cats; format: in vivo, cat; conditions: dose 40 mg (os); entry (1)
[7] = intravenous, read-out: Tolerability, i.v.
[8] = oral, fasted 18 hours, read-out: Tolerability, os

Row | Structure (SMILES) | MTD at 168 h [1, 7] [mg/kg] | MTD at 168 h [1, 8] [mg/kg] | LD50 [3] [mg/kg] | also measured
1 | COc1cc2c(cc1OC)CC(NCC(O)c1ccc(O)cc1)CC2 (stereo not shown) [ST 558, 2-[(N-2-p-hydroxyphenyl-2-ethanol)amino]-6,7-dimethoxy tetraline hydrochloride] | > 50 | > 50 | – | Arterial pressure in hypertensive SHR rats ([2]; 3 hours): -13 mm Hg; Arterial pressure in hypertensive SHR rats ([2]; 5 hours): -31 mm Hg
2 | COc1cc2c(cc1OC)CC(NCC(O)c1ccc(C)cc1)CC2 (stereo not shown) [ST 563, 2-[(N-2-p-methylphenyl-2-ethanol)amino]-6,7-dimethoxy tetraline] | > 20 | > 50 | 35.7 | Arterial pressure in hypertensive SHR rats ([2]; 2 hours): -65 mm Hg
3 | COc1ccc(C(O)CN(CC2CC2)C2CCc3cc(OC)c(OC)cc3C2)cc1 (stereo not shown) [ST 565, 2-[(N-methylcyclopropyl, N-p-methoxy-phenyl-2-ethanol)amino]-6,7-dimethoxy tetraline hydrochloride] | – | > 50 | – | –
4 | CCCN(CC(O)c1ccccc1)C1CCc2cc(OC)c(OC)cc2C1 (stereo not shown) [ST 566, 2-[(N-propyl,N-phenyl-2-ethanol)amino]-6,7-dimethoxy tetraline hydrochloride] | > 20 | > 50 | – | –
5 | COc1cc2c(cc1OC)CC(N(CC1CC1)CC(O)c1ccccc1)CC2 (stereo not shown) [ST 567, 2-[(N-methylcyclopropyl, N-phenyl-2-ethanol)amino]-6,7-dimethoxy tetraline hydrochloride] | > 15 | > 50 | 30.2 | –
6 | CCN(CC(O)c1ccccc1)C1CCc2cc(OC)c(OC)cc2C1 (stereo not shown) [ST 570, 2-[(N-ethyl, N-2-phenyl-2-ethanol)amino]-6,7-dimethoxy tetraline hydrochloride] | > 20 | > 50 | 34.9 | Arterial pressure in normotensive cats, hypotension ([4]; dose 1 mg/kg): 64 mm Hg; Times of effect duration (hypotension in normotensive cats) ([4]; dose 1 mg/kg): L (long >30 minutes); Arterial pressure in hypertensive SHR rats ([2]; 2 hours): -29 mm Hg
7 | CCCN(CC(O)c1ccc(C)cc1)C1CCc2cc(OC)c(OC)cc2C1 (stereo not shown) [ST 571, 2-[(N-propyl,N-2-p-methylphenyl-2-ethanol)amino]-6,7-dimethoxy tetraline hydrochloride] | > 30 | > 50 | 42.3 | Times of effect duration (hypotension in normotensive cats) ([4]; dose 1-2-4 mg/kg): M/B
8 | COc1cc2c(cc1OC)CC(N(CC1CC1)CC(O)c1ccc(C)cc1)CC2 (stereo not shown) [ST 574, 2-[(N-methylcyclopropyl, N-p-methylphenyl-2-ethanol)amino]-6,7-dimethoxy tetraline hydrochloride] | > 30 | > 50 | – | Times of effect duration (hypotension in normotensive cats) ([4]; dose 1-2-4 mg/kg): M/B
9 | CCN(CCc1ccccc1)C1CCc2cc(OC)c(OC)cc2C1 (stereo not shown) [ST 577, 2-[(N-ethyl, N-2-phenylethyl)amino]-6,7-dimethoxy tetraline hydrochloride] | > 20 | > 50 | 35.7 | Arterial pressure in normotensive cats, hypotension ([4]; dose 1 mg/kg): 20 mm Hg; Times of effect duration (hypotension in normotensive cats) ([4]; dose 1 mg/kg): L (long >30 minutes); Arterial pressure in normotensive cats, hypotension ([4]; dose 2 mg/kg): 44 mm Hg; Times of effect duration (hypotension in normotensive cats) ([4]; dose 2 mg/kg): M (average ≤30 minutes)
10 | COc1ccc(C(O)CNC2CCc3cc(OC)c(OC)cc3C2)cc1 (stereo not shown) [ST 578, 2-[(N-2-p-methoxyphenyl-2-ethanol)amino]-6,7-dimethoxy tetraline hydrochloride] | > 15 | > 50 | 27.7 | Times of effect duration (hypotension in normotensive cats) ([4]; dose 1-2-4 mg/kg): B/L; Arterial pressure in hypertensive SHR rats ([2]; 3 hours): -40 mm Hg; Arterial pressure in hypertensive SHR rats ([2]; 5 hours): -27 mm Hg
11 | COc1cc2c(cc1OC)CC(NCC(O)c1ccccc1)CC2 (stereo not shown) [ST 579, 2-[(N-2-phenyl-2-ethanol)amino]-6,7-dimethoxy tetraline hydrochloride] | > 20 | > 50 | 35.7 | Arterial pressure in hypertensive SHR rats ([2]; 2 hours): -26 mm Hg; Arterial pressure in hypertensive DOCA rats [5]: -20 mm Hg
12 | COc1cc2c(cc1OC)CC(NCC(O)c1ccc(C(F)(F)F)cc1)CC2 (stereo not shown) [ST 590, 2-[(N-2-p-trifluoromethylphenyl-2-ethanol)amino]6,7-dimethoxy tetraline hydrochloride] | > 50 | > 50 | – | Arterial pressure in normotensive cats, hypotension [6]: 39 mm Hg; Times of effect duration (hypotension in normotensive cats) [6]: L (long >30 minutes)
13 | CCN(CC(O)c1ccc(C(F)(F)F)cc1)C1CCc2cc(OC)c(OC)cc2C1 (stereo not shown) [ST 592, 2-[(N-ethyl, N-2-p-trifluoromethylphenyl-2-ethanol)-amino]-6,7-dimethoxy tetraline hydrochloride] | > 30 | > 50 | – | –
14 | COc1cc2c(cc1OC)CC(NCC(O)c1ccc(F)cc1)CC2 (stereo not shown) [ST 593, 2-[(N-2-p-fluorophenyl-2-ethanol)amino]-6,7-dimethoxy tetraline hydrochloride] | > 50 | > 50 | – | Arterial pressure in normotensive cats, hypotension ([4]; dose 1 mg/kg): 12 mm Hg; Arterial pressure in normotensive cats, hypotension ([4]; dose 2 mg/kg): 16 mm Hg; Arterial pressure in normotensive cats, hypotension ([4]; dose 4 mg/kg): 26 mm Hg; Times of effect duration (hypotension in normotensive cats) ([4]; dose 1-2-4 mg/kg): M/B
15 | COc1cc2c(cc1OC)CC(NCC(OC)c1ccccc1)CC2 (stereo not shown) [ST 600, 2-[(N-2-phenyl-2-methoxyethyl)amino]-6,7-dimethoxy tetraline hydrochloride] | > 20 | > 50 | 29.7 | Arterial pressure in normotensive cats, hypotension ([4]; dose 2 mg/kg): 28 mm Hg; Times of effect duration (hypotension in normotensive cats) ([4]; dose 2 mg/kg): B (short <5 minutes); Arterial pressure in normotensive cats, hypotension ([4]; dose 4 mg/kg): 54 mm Hg; Times of effect duration (hypotension in normotensive cats) ([4]; dose 4 mg/kg): M (average ≤30 minutes)
